In the data set the test system is CCRIS mutagenicity, Ames/micronucleus/aberration tests. As to the kind of experiment: CCRIS mutagenicity studies.
Where [1] appears, read: Test System: AMES SALMONELLA TYPHIMURIUM, Strain/Indicator: TA98, Metabolic Activation: NONE, Method: STANDARD PLATE.
Where [2] appears, read: Test System: AMES SALMONELLA TYPHIMURIUM, Strain/Indicator: TA98, Metabolic Activation: RAT, LIVER, S-9, AROCLOR 1254, Method: STANDARD PLATE.
[3] abbreviates: Test System: AMES SALMONELLA TYPHIMURIUM, Strain/Indicator: TA100, Metabolic Activation: NONE, Method: STANDARD PLATE.
The mark [4] stands for this setting: Test System: AMES SALMONELLA TYPHIMURIUM, Strain/Indicator: TA100, Metabolic Activation: RAT, LIVER, S-9, AROCLOR 1254, Method: STANDARD PLATE.
Setting [5] is: Test System: AMES SALMONELLA TYPHIMURIUM, Strain/Indicator: TA1535, Metabolic Activation: NONE, Method: STANDARD PLATE.
Where [6] appears, read: Test System: AMES SALMONELLA TYPHIMURIUM, Strain/Indicator: TA1535, Metabolic Activation: RAT, LIVER, S-9, AROCLOR 1254, Method: STANDARD PLATE.
[7] abbreviates: Test System: AMES SALMONELLA TYPHIMURIUM, Strain/Indicator: TA1537, Metabolic Activation: NONE, Method: STANDARD PLATE.
Setting [8] is: Test System: AMES SALMONELLA TYPHIMURIUM, Strain/Indicator: TA1537, Metabolic Activation: RAT, LIVER, S-9, AROCLOR 1254, Method: STANDARD PLATE.
Setting [9] is: Test System: AMES SALMONELLA TYPHIMURIUM, Strain/Indicator: TA97, Metabolic Activation: NONE, Method: STANDARD PLATE.
[10] abbreviates: Test System: AMES SALMONELLA TYPHIMURIUM, Strain/Indicator: TA97, Metabolic Activation: RAT, LIVER, S-9, AROCLOR 1254, Method: STANDARD PLATE.
The mark [11] stands for this setting: Test System: AMES SALMONELLA TYPHIMURIUM, Strain/Indicator: TA1538, Metabolic Activation: NONE, Method: STANDARD PLATE.
[12] abbreviates: Test System: AMES SALMONELLA TYPHIMURIUM, Strain/Indicator: TA98, Metabolic Activation: NONE, Method: PREINCUBATION

The source made the active and inactive calls. How the calls were made is not given here.

Take `CCN(CC)c1ccc(N=Nc2ccc([N+](=O)[O-])cc2C#N)cc1`: the mutagenic call is “active; positive” under setting [1]; “active; positive” under setting [2]; “active; positive” under setting [3]; “active; positive” under setting [4]; “inactive; negative” under setting [5]; “inactive; negative” under setting [6]. For the same compound, the mutagenic call reads like this: under setting [7], “active; positive”; under setting [8], “active; positive”; (Test System: CHINESE HAMSTER OVARY, Strain/Indicator: CHO (HGPRT)/6-THIOGUANINE, Metabolic Activation: NONE) “inactive; negative”; (Test System: CHINESE HAMSTER OVARY, Strain/Indicator: CHO (HGPRT)/6-THIOGUANINE, Metabolic Activation: RAT, LIVER, S-9, AROCLOR 1254) “inactive; negative”; (Test System: UDS RAT HEPATOCYTES, Strain/Indicator: THY INCORP, Metabolic Activation: NONE, Method: AUTORADIOGRAPHY) “inactive; negative”.

Consider `CC(O)CN(C)c1ccc(NN)nn1` (stereo not drawn), for which the mutagenic call under setting [9] is “active; positive”; the mutagenic call under setting [10] is “active; positive”; the mutagenic call under setting [1] is “active; positive”; the mutagenic call under setting [2] was “active; positive”; the mutagenic call under setting [3] was “inactive; negative”; the mutagenic call under setting [4] is “inactive; negative”. In addition, the mutagenic call by setting is: (Test System: AMES SALMONELLA TYPHIMURIUM, Strain/Indicator: TA102, Metabolic Activation: NONE, Method: STANDARD PLATE) “active; positive”; (Test System: AMES SALMONELLA TYPHIMURIUM, Strain/Indicator: TA102, Metabolic Activation: RAT, LIVER, S-9, AROCLOR 1254, Method: STANDARD PLATE) “inactive; negative”; under setting [5], “inactive; negative”; under setting [6], “inactive; negative”; under setting [7], “active; positive”; under setting [8], “active; positive”. The mutagenic call was “active; positive” under setting [11]; “active; positive” (Test System: AMES SALMONELLA TYPHIMURIUM, Strain/Indicator: TA1538, Metabolic Activation: RAT, LIVER, S-9, AROCLOR 1254, Method: STANDARD PLATE); “inactive; negative” (Test System: E. COLI, Strain/Indicator: WP2, Metabolic Activation: RAT, LIVER, S-9, AROCLOR 1254, Method: STANDARD PLATE); “active; positive” (Test System: E. COLI, Strain/Indicator: WP2 UVRA, Metabolic Activation: RAT, LIVER, S-9, AROCLOR 1254, Method: STANDARD PLATE).

`N=c1c2ncn(C(c3ccccc3)(c3ccccc3)c3ccccc3)c2ncn1O`: the mutagenic call is “inactive; negative” under setting [9]; “inactive; negative” under setting [10]; “inactive; negative” under setting [1]; “active; positive” under setting [2]; “inactive; negative” under setting [3]; “inactive; negative” under setting [4].

Turning to `NC1CCCCC1`, the mutagenic call was “inactive; negative” (Test System: CHINESE HAMSTER OVARY, Strain/Indicator: CHO-K1-BH4 (HGPRT), Metabolic Activation: NONE, Method: STANDARD PLATE); “inactive; negative” (Test System: CHINESE HAMSTER OVARY, Strain/Indicator: CHO-K1-BH4 (HGPRT), Metabolic Activation: RAT, LIVER, S-9, Method: STANDARD PLATE); “inactive; negative” (Test System: UDS RODENT HEPATOCYTES, Strain/Indicator: THY INCORP (NON-S-PHASE), Metabolic Activation: NONE, Method: AUTORADIOGRAPHY).

With `CC(=O)[C@]1(O)Cc2c(O)c3c(c(O)c2[C@@H](O[C@H]2C[C@H](N)[C@H](O)[C@H](C)O2)C1)C(=O)c1ccccc1C3=O`, the mutagenic call reads like this: (Test System: AMES SALMONELLA TYPHIMURIUM, Strain/Indicator: GW257, Metabolic Activation: NONE, Method: STANDARD PLATE) “active; positive”; under setting [1], “active; positive”; under setting [3], “active; positive”; under setting [11], “active; positive”; (Test System: CHINESE HAMSTER V-79, Strain/Indicator: V-79/6-THIOGUANINE, Metabolic Activation: NONE, Method: SUSPENSION/PLATE) “active; positive”; (Test System: UDS RAT HEPATOCYTES, Strain/Indicator: THY INCORP, Metabolic Activation: NONE, Method: AUTOMATIC COLONY COUNTER) “active; positive”.

In the case of `CCCCCCCCCC(=O)N=c1sn(C(=O)CCCCCCCCC)c2ccc([N+](=O)[O-])cc12`, the mutagenic call (Test System: AMES SALMONELLA TYPHIMURIUM, Strain/Indicator: TA100, Metabolic Activation: S-9, Method: STANDARD PLATE) is “active; positive”.

Regarding `O=C(O)[C@H]1OC(Oc2ccc3cc4ccc5cccc6ccc(c3c2)c4c56)[C@H](O)[C@@H](O)[C@@H]1O` (stereo partly drawn), the mutagenic call reads like this: under setting [12], “inactive; negative”; (Test System: AMES SALMONELLA TYPHIMURIUM, Strain/Indicator: TA98, Metabolic Activation: RAT, LUNG, S-9, Method: PREINCUBATION) “inactive; negative”.

With `CCn1c2ccccc2c2cc(C=O)ccc21`, the mutagenic call (End Point: IN VITRO CHROMOSOMAL ABERRATIONS, Test System: CHL CELLS, Metabolic Activation: RAT, LIVER, S-9, SODIUM PHENOBARBITAL AND 5,6-BENZOFLAVONE) was “active; positive (structural changes)”.

As for `OCCOCCOCCO`, the mutagenic call is, setting by setting: under setting [12], “inactive; negative”; (Test System: AMES SALMONELLA TYPHIMURIUM, Strain/Indicator: TA98, Metabolic Activation: RAT LIVER S-9, PHENOBARBITAL AND BETA-NAPHTHOFLAVONE, Method: PREINCUBATION) “inactive; negative”; (Test System: AMES SALMONELLA TYPHIMURIUM, Strain/Indicator: TA100, Metabolic Activation: NONE, Method: PREINCUBATION) “inactive; negative”; (Test System: AMES SALMONELLA TYPHIMURIUM, Strain/Indicator: TA100, Metabolic Activation: RAT LIVER S-9, PHENOBARBITAL AND BETA-NAPHTHOFLAVONE, Method: PREINCUBATION) “inactive; negative”; (Test System: AMES SALMONELLA TYPHIMURIUM, Strain/Indicator: TA1535, Metabolic Activation: NONE, Method: PREINCUBATION) “inactive; negative”; (Test System: AMES SALMONELLA TYPHIMURIUM, Strain/Indicator: TA1535, Metabolic Activation: RAT LIVER S-9, PHENOBARBITAL AND BETA-NAPHTHOFLAVONE, Method: PREINCUBATION) “inactive; negative”. For the same compound, the mutagenic call is “inactive; negative” (Test System: AMES SALMONELLA TYPHIMURIUM, Strain/Indicator: TA1537, Metabolic Activation: NONE, Method: PREINCUBATION); “inactive; negative” (Test System: AMES SALMONELLA TYPHIMURIUM, Strain/Indicator: TA1537, Metabolic Activation: RAT LIVER S-9, PHENOBARBITAL AND BETA-NAPHTHOFLAVONE, Method: PREINCUBATION); “inactive; negative” (Test System: AMES SALMONELLA TYPHIMURIUM, Strain/Indicator: TA1538, Metabolic Activation: NONE, Method: PREINCUBATION); “inactive; negative” (Test System: AMES SALMONELLA TYPHIMURIUM, Strain/Indicator: TA1538, Metabolic Activation: RAT LIVER S-9, PHENOBARBITAL AND BETA-NAPHTHOFLAVONE, Method: PREINCUBATION); “inactive; negative” (Test System: E.COLI, Strain/Indicator: WP2UVRA, Metabolic Activation: NONE, Method: PREINCUBATION); “inactive; negative” (Test System: E.COLI, Strain/Indicator: WP2UVRA, Metabolic Activation: RAT LIVER S-9, PHENOBARBITAL AND BETA-NAPHTHOFLAVONE, Method: PREINCUBATION).

The values above are taken from PubChem BioAssay AID1259407 (Chemical Carcinogenesis Research Information System (CCRIS), 2018).
